Values of other authors in PMC10353446, “Pharmacokinetics of SPR206 in Plasma, Pulmonary Epithelial Lining Fluid, and Alveolar Macrophages following Intravenous Administration to Healthy Adult Subjects” (Antimicrobial Agents and Chemotherapy, 2023).

Tests used:
[1] = human, in vivo, iv; cited from earlier work
[2] = in vivo, cited from earlier work

## colistin
[1]
  Levels in BAL fluid: undetectable levels
[2]; iv
  Lung concentrations: undetectable
[2]
  Lung concentrations relative to MIC50 for P. aeruginosa: below the MIC50 for P. aeruginosa
